For assay [1], the system named is endothelial cells (HUVEC). In words: Cell viability, MTT colorimetric assay under reduced serum. Format: cell-based. The note with it: 5 μg/ml; 48 hours; RPMI 1640 with 1% FBS; vs control without peptide. The protocol: Tests for cell viability (% viability) was realized utilizing reduced serum conditions and MTT (3-[4,5-Dimethylthiazol-2-yl]-2,5-Diphenyltetrazolium bromide) colorometric assay (Mosmann, 1983). The results are illustrated in FIGS. 1 to 3.
FIG. 1 illustrates the effect of peptides (5 μg/ml) on cell viability (% viability) of endothelial cells (HUVEC) when incubated together for 48 hours in RPMI 1640 with 1% FBS. The control has cells incubated in RPMI 1640 with 1% FBS (with no peptide).
FIG. 2 illustrates the effect of different concentrations of CNF011.05B on cell viability (% viability) of endothelial cells when incubated together for 120 hours in RPMI supplemented with 1% FBS.
FIG. 3 illustrates the effect of different concentrations of CNF011.05D on cell viability (% viability) of endothelial cells when incubated together for 48 hours in RPMI supplemented with 1% FBS.
(In general: Formazan colour is commonly taken as a measure of viable cells.)

In assay [2] the test system is collagen in the dermis. In words: Production of collagen in the dermis after subcutaneous doses. Format: in vivo. An excerpt: Levels of collagen were examined after different administrations of CNF011.05D: a single subcutaneous dose, two subcutaneous doses, and four subcutaneous doses.
Assay [3] concerns Neutrophils. In words: NO2 production by neutrophils, Griess reaction. Format: cell-based, Wistar Rats. To be noted: 1.5 μg/ml; 18 hours; absorbance at 550 nm. The protocol: Neutrophils were cultured for 18 hours with CNF011.05D (1.5 μg/ml), and production of NO metabolite NO2 secreted into culture was assessed by use of the Griess reaction, and measurement of absorbance at 550 nm.
Background: Griess reagent forms a coloured azo dye with nitrite.

Assay [4] has as its system Neutrophils. In words: Neutrophil viability by flow cytometry (annexin V / propidium iodide), reduced serum. Format: cell-based, Wistar Rats. To be noted: reduced serum medium (1%), 24 hours. The protocol: (§1) Neutrophils or primary cultured endothelial cells from Wistar Rats were cultured in reduced serum medium (1%) in presence of CNF011.05D (3.0 μm/mL) and/or […] L-NAME, an inhibitor of NO synthase (and accordingly, an inhibitor of NO and resulting metabolite NO2 production). After 24 hours, cell viability was measured using flow cytometry analysis with FITC annexin V (1:500) and propidium iodide (10 μl of 50 mg/ml). The viability of both neutrophils (FIG. 4) and primary endothelial cells (FIG. 5) was increased with the peptide CNF011.05D alone, and this increase was diminished in presence of L-NAME.
A general note: In flow cytometry, cells or beads pass a laser one at a time.

In assay [5] the test system is primary cultured endothelial cells. In words: Primary endothelial cell viability by flow cytometry (annexin V / propidium iodide), reduced serum. Format: cell-based, Wistar Rats. The note with it: reduced serum medium (1%), 24 hours. How it is done:
as §1

Assay [6] has as its system Human fibroblasts. In words: Production of fibronectin by fibroblasts, indirect immunofluorescence. The note with it: 0.35 μg; 4 days; vs saline; p<0.001. It counts as cell-based. How it is done: (§2) Human fibroblasts were acquired from ear lobe skin fragments (0.5×0.5 cm) from 5 normal African-Brazilian female donors, with age ranging from 10 to 40 years old, respectively called 2/05, 3/05, 4/05, 6/05 and 8/05. The donors were submitted to excisional biopsies in a surgical environment after free voluntary consent.
(§3) Cells from the 6th subculture were placed in sterile culture plates and incubated with CNF011.05D at concentrations of 0.35 μg and 5 μg in culture medium for 4 days. The control group consisted of fibroblasts cultured under the same conditions, in which saline solution (a solvent of CNF011.05D) was added in the place of CNF011.05D.
(§4) Indirect immunofluorescence was performed using (1) Anti-fibronectin (cellular) mAb OR anti-human tenascin mAb (Sigma-USA); and (2) Alexa Fluor 488 (Molecular Probes-USA).
Samples tested are FBN-CN (cells treated with saline), FBN-0.35 (cells treated with CNF011.05D at 0.35 μg), and FBN-5 μg (cells treated with CNF011.05D at 5 μg).

In assay [7] the test system is punch wounds. In words: Wound healing in rats, 6 mm punch wounds. It counts as in vivo, Wistar rats. The protocol:
Size and microscopic appearance of punch wounds was assessed in rats after a single dose of CNF011.05D. The rats were Wistar rats of 6-to-8 weeks of age, which were anesthesized and operated on the dorsal side of their backs. Following clipping of hair and scrub sterilization, wounds were made in each rat using a 6 mm biopsy punch. Following wounding and drying with sterile gauze, wounds were subjected to (1) bandaging (Standard Care) or (2) application of CNF011.05D (235 nM in saline) followed by bandaging. Wounds evaluated at Days 3, 7, 14, and 21 were assessed by veterinarians and documented as to whether the wound was healing normally for the day post-wounding, and the size of the wound in cm^2.

The test system of assay [8] is Human fibroblasts. In words: Production of tenascin by fibroblasts, indirect immunofluorescence. Format: cell-based. To be noted: 0.35 μg; 4 days; vs saline; p<0.001. The protocol: as §2, §3, §4
Samples tested are CN (cells treated with saline), TN-0.35 (cells treated with CNF011.05D at 0.35 μg), and TN-5 μg (cells treated with CNF011.05D at 5 μg).

Assay [9] concerns punch wounds. In words: Wound healing in pigs, 8 mm punch wounds, granulation tissue filling. Format: in vivo, Domestic Yorkshire Crossbred pigs. How it is done:
Levels of granulation tissue formation—a marker of the proliferative phase of Healing (Cascade)—were assessed in punch wounds after daily administrations of CNF011.05D or positive control (Bacaplermin gel 0.01%). The wounded animals were Domestic Yorkshire Crossbred pigs of 20 weeks of age, which were anesthesized and operated on the dorsal side of their backs. Following clipping of hair and scrub sterilization, 8 full thickness wounds were made in each pig using an 8 mm biopsy punch.
Following wounding and drying with sterile gauze, the wounds were subjected to application with different treatments (see Table 5 and 6) followed by bandaging. Long-term postoperative monitoring included daily inspection of the surgical sites for 14 days. The daily inspection included cleansing of the wounds, reapplication of the same treatments—Standard Care or Positive Control or CNF011.05D (1×) or CNF011.05D (100×)—followed by rebandaging. […]

[10] abbreviates: CNF011.05D 3.0 μm/mL plus 1M L-NAME.
Where [11] appears, read: 1x: 1 ml at 1.57 μg/ml in saline, daily, six wounds, Day 5.
Setting [12] is: 1x: 1 ml at 1.57 μg/ml in saline, daily, six wounds, Day 7.
Setting [13] is: 100x: 1 ml at 157 μg/ml in saline, daily, six wounds, Day 7.

Several values for one entry are separate records, joined by “and”; a condition that tells them apart may be missing. Equal entries are not always repeated.

Regarding APLWILSTDYDNYAIGYSC [CNF011.05B], the “cell viability (% viability)” value in [1] is on record as “augment”.
Consider YAIGYSCKDYK [CNF011.05D], for which the “Treated Skin Collagen (%)” value was 37.60% and 34.94% in assay [2] (four subcutaneous doses 0.30 μg (total 1.20), 4 weeks after dose); 41.20% and 57.15% in assay [2] (single subcutaneous dose 0.30 μg, 1 week after dose); 43.78% and 39.20% in assay [2] (single subcutaneous dose 0.30 μg, 2 weeks after dose); 29.57% and 27.22% in assay [2] (single subcutaneous dose 0.30 μg, 12 weeks after dose); 44.19% and 37.91% in [2] (two subcutaneous doses 0.30 μg one week apart (total 0.60), 2 weeks after dose); 39.23% and 47.33% in assay [2] (two subcutaneous doses 0.30 μg one week apart (total 0.60), 12 weeks after dose). The “cell viability (% viability)” value in assay [1] is “augment”. Moreover, the “production of NO2” value in [3] is reported as “increases”. In [4] (setting [10]), the “increase of viability of neutrophils in presence of L-NAME” value was “diminished”. The viability of neutrophils result in assay [4] (CNF011.05D alone 3.0 μm/mL) is “increased”. The “increase of viability of primary endothelial cells in presence of L-NAME” value in assay [5] (setting [10]) was “diminished”. Also, the “viability of primary endothelial cells” value in [5] (CNF011.05D alone 3.0 μm/mL) was “increased”. Moreover, in [6], the “production of fibronectin by fibroblasts” value is “significant enhancement”. Moreover, the “Day 3 Size of punch wounds” value in [7] (235 nM in saline, single dose, then bandaging, Day 3, 8 rats per timepoint) was determined as 0.200 cm^2. Besides, the “Day 7 Size of punch wounds” value in assay [7] (235 nM in saline, single dose, then bandaging, Day 7, 8 rats per timepoint) is given as 0.084 cm^2. Further, the “Day 14 Size of punch wounds” value in assay [7] (235 nM in saline, single dose, then bandaging, Day 14, 8 rats per timepoint) is given as 0.053 cm^2. Further, the “Day 21 Size of punch wounds” value in assay [7] (235 nM in saline, single dose, then bandaging, Day 21, 8 rats per timepoint) is “Scar **”. Further, the “scar size and color” value in assay [7] (21 days, in comparison to Standard Care (negative control)) was “scars of reduced size and color”. The “tenascin production by fibroblasts” value in [8] is “significant difference”. The “Granulation Tissue Filling No (wounds)” value in assay [9] (1x: 1 ml at 1.57 μg/ml in saline, daily, six wounds, Day 1) was 6; in assay [9] (setting [11]), 3; in [9] (setting [12]), 2; in assay [9] (1x: 1 ml ointment at 1.57 μg/ml in Hydroxyethyl cellulose/Glycerin (20%/80%), two wounds, Day 1), 2; in [9] (100x: 1 ml at 157 μg/ml in saline, daily, six wounds, Day 1), 6; in assay [9] (100x: 1 ml at 157 μg/ml in saline, daily, six wounds, Day 5), 6. Besides, the “Granulation Tissue Filling No (wounds)” value is on record as 5 in assay [9] (setting [13]) and 2 in assay [9] (100x: 1 ml ointment at 157 μg/ml in Hydroxyethyl cellulose/Glycerin (20%/80%), two wounds, Day 1). Also, the “Granulation Tissue Filling Yes (wounds)” value in assay [9] (setting [11]) is 3; in [9] (setting [12]), 4; in assay [9] (1x: 1 ml at 1.57 μg/ml in saline, daily, six wounds, Day 10) it was 6; in [9] (1x: 1 ml at 1.57 μg/ml in saline, daily, six wounds, Day 14), 6; in assay [9] (1x: 1 ml ointment at 1.57 μg/ml in Hydroxyethyl cellulose/Glycerin (20%/80%), two wounds, Day 5) it was 2; in assay [9] (1x: 1 ml ointment at 1.57 μg/ml in Hydroxyethyl cellulose/Glycerin (20%/80%), two wounds, Day 7), 2. Further, the “Granulation Tissue Filling Yes (wounds)” value is listed as 2 in assay [9] (1x: 1 ml ointment at 1.57 μg/ml in Hydroxyethyl cellulose/Glycerin (20%/80%), two wounds, Day 10); 2 in assay [9] (1x: 1 ml ointment at 1.57 μg/ml in Hydroxyethyl cellulose/Glycerin (20%/80%), two wounds, Day 14); 1 in assay [9] (setting [13]); 6 in [9] (100x: 1 ml at 157 μg/ml in saline, daily, six wounds, Day 10); 6 in assay [9] (100x: 1 ml at 157 μg/ml in saline, daily, six wounds, Day 14); 2 in assay [9] (100x: 1 ml ointment at 157 μg/ml in Hydroxyethyl cellulose/Glycerin (20%/80%), two wounds, Day 5). In addition, the “Granulation Tissue Filling Yes (wounds)” value stood at 2 in assay [9] (100x: 1 ml ointment at 157 μg/ml in Hydroxyethyl cellulose/Glycerin (20%/80%), two wounds, Day 7); 2 in [9] (100x: 1 ml ointment at 157 μg/ml in Hydroxyethyl cellulose/Glycerin (20%/80%), two wounds, Day 10); 2 in assay [9] (100x: 1 ml ointment at 157 μg/ml in Hydroxyethyl cellulose/Glycerin (20%/80%), two wounds, Day 14).

For the origin of these results see patent US8883740B2, “Peptides, compositions, and uses thereof” (Fundacao de Amparoa Pesquisa do Estado de Sao Paulo-Fapesp, priority 2008, dated 2014).
